Measurements as given in patent publication US8119148B2, “Suspension comprising oxcarbazepine” (Novartis Pharmaceuticals Corporation, priority 1999, dated 2012).
Values after ≈ are worked out from the molar mass of the structure shown.

Assay: Solubility in water
Type: physicochemical
Settings: pH 5.8, water, at 25° C. and pH of 5.8 to 6.0
Experimental: A wide range of container sizes may be employed. Container size may be conveniently categorised as Low-Volume, e.g., 100 ml or less and High-Volume, e.g., above 100 ml and typically 250 ml.

solubility: 3200 to 4200 µg/mL (≈ 12.7 to 16.6 mM)
SMILES: NC(=O)N1c2ccccc2CC(=O)c2ccccc21 [oxcarbazepine, 10,11-Dihydro-10-oxo-5H-di-benz[b,f]azepine-5-carboxamide]
